In publication PMC12860872, “Preclinical evaluation of DOTAGA.Glu.(FAPI)2 and DO3A.Glu.(FAPI)2 as theranostics with human dosimetry extrapolation to lutetium-177 and terbium-161 analogs” (European Journal of Nuclear Medicine and Molecular Imaging, 2025):
Values joined by “and” are separate entries in the source; they are usually repeats but may differ in a detail not shown here. Equal entries are not always repeated.

Columns and labels:
[1] = cited from earlier work
[2] = Blood clearance kinetics in healthy mice; type: in vivo, mouse; conditions: i.v., Two-Phase Decay Model
Method: Blood samples were collected from the facial vein at 1, 3, 5, 7, 10, 15, 20, 30, 45, 60, 240, and 1440 min p.i., weighed, and measured for radioactivity using a γ-counter. Results were expressed as % I.A./g of blood and plotted over time. The initial and terminal half-lives were determined using Two-Phase Decay Model. The biological half-lives of selected organs were calculated from the biodistribution data using One-Phase Decay Model (GraphPad Prism 8).

PC3-mice = test: Biodistribution in PC3-mice incl. blocking; type: in vivo, mouse; conditions: PC3-mice
Method: Male athymic Balb/C nude mice (6 weeks/20–25 g) were implanted with PC3 cells (3.5 × 10^6/100 µL PBS) into their right shoulder to develop tumors. The animals were used for biodistribution and PET/SPECT/CT imaging studies, once tumors reached 250–300 mm^3.
All mice were euthanized with intraperitoneal injection of pentobarbital (150 mg/kg), and selected organs were dissected, weighed, and measured for radioactivity using a gamma-counter. Results are expressed as % injected activity per gram tissue (% I.A./g), presented as mean ± SD (n = 3–4).

[3] = Blocking 4h (20 nmol unlabeled precursor)

- Blood half life (initial) [2]: 2.8 min
- Blood half life (terminal) [2]: 4.692 h and 4.7 h
- Uptake in Adrenal (PC3-mice; 4 h p.i.): 3±0.2 %I.A./g
- Uptake in Blood (PC3-mice; 4 h p.i.): 2.1±0.1 %I.A./g
- Uptake in Bone (PC3-mice; 4 h p.i.): 4±0.3 %I.A./g
- Uptake in Gallbladder (PC3-mice; 4 h p.i.): 2.7±1.6 %I.A./g
- Uptake in Heart (PC3-mice; 4 h p.i.): 0.9±0.1 %I.A./g
- Uptake in Intestine (PC3-mice; 4 h p.i.): 0.8±0.3 %I.A./g
- Uptake in Kidney (PC3-mice; 4 h p.i.): 2.6±0.4 %I.A./g
- Uptake in Liver (PC3-mice; 4 h p.i.): 1.7±0.2 %I.A./g
- Uptake in Lung (PC3-mice; 4 h p.i.): 1.1±0.1 %I.A./g
- Uptake in Muscle (PC3-mice; 4 h p.i.): 1.4±0.3 %I.A./g
- Uptake in Pancreas (PC3-mice; 4 h p.i.): 1.9±0.1 %I.A./g
- Uptake in Salivary glands (PC3-mice; 4 h p.i.): 6.2±1.2 %I.A./g
- Uptake in Spleen (PC3-mice; 4 h p.i.): 0.9±0.1 %I.A./g
- Uptake in Stomach (PC3-mice; 4 h p.i.): 0.8±0.1 %I.A./g
- Uptake in Tumor (PC3-mice; 4 h p.i.): 16.2±2.5 %I.A./g
- Uptake in Adrenal (PC3-mice; 24 h p.i.): 1.9±0.2 %I.A./g
- Uptake in Blood (PC3-mice; 24 h p.i.): 0.9±0.2 %I.A./g
- Uptake in Bone (PC3-mice; 24 h p.i.): 2.5±0.1 %I.A./g
- Uptake in Gallbladder (PC3-mice; 24 h p.i.): 0.4±0.1 %I.A./g
- Uptake in Heart (PC3-mice; 24 h p.i.): 0.6±0.1 %I.A./g
- Uptake in Intestine (PC3-mice; 24 h p.i.): 0.4±0.1 %I.A./g
- Uptake in Kidney (PC3-mice; 24 h p.i.): 1.3±0.2 %I.A./g
- Uptake in Liver (PC3-mice; 24 h p.i.): 2.1±0.2 %I.A./g
- Uptake in Lung (PC3-mice; 24 h p.i.): 0.6±0.2 %I.A./g
- Uptake in Muscle (PC3-mice; 24 h p.i.): 0.8±0.1 %I.A./g
- Uptake in Pancreas (PC3-mice; 24 h p.i.): 0.9±0.7 %I.A./g
- Uptake in Salivary glands (PC3-mice; 24 h p.i.): 2.9±0.5 %I.A./g
- Uptake in Spleen (PC3-mice; 24 h p.i.): 0.7±0.2 %I.A./g
- Uptake in Stomach (PC3-mice; 24 h p.i.): 0.4±0.1 %I.A./g
- Uptake in Tumor (PC3-mice; 24 h p.i.): 7.3±0.6 %I.A./g
- Uptake in Adrenal (PC3-mice; 48 h p.i.): 1.3±0.3 %I.A./g
- Uptake in Blood (PC3-mice; 48 h p.i.): 0.2±0.03 %I.A./g
- Uptake in Bone (PC3-mice; 48 h p.i.): 1.3±0.1 %I.A./g
- Uptake in Gallbladder (PC3-mice; 48 h p.i.): 0.1±0.1 %I.A./g
- Uptake in Heart (PC3-mice; 48 h p.i.): 0.4±0.04 %I.A./g
- Uptake in Intestine (PC3-mice; 48 h p.i.): 0.2±0.01 %I.A./g
- Uptake in Kidney (PC3-mice; 48 h p.i.): 1±0.2 %I.A./g
- Uptake in Liver (PC3-mice; 48 h p.i.): 1.9±0.5 %I.A./g
- Uptake in Lung (PC3-mice; 48 h p.i.): 0.3±0.1 %I.A./g
- Uptake in Muscle (PC3-mice; 48 h p.i.): 0.5±0.1 %I.A./g
- Uptake in Pancreas (PC3-mice; 48 h p.i.): 0.6±0.1 %I.A./g
- Uptake in Salivary glands (PC3-mice; 48 h p.i.): 2.2±0.3 %I.A./g
- Uptake in Spleen (PC3-mice; 48 h p.i.): 0.5±0.04 %I.A./g
- Uptake in Stomach (PC3-mice; 48 h p.i.): 0.3±0.03 %I.A./g
- Uptake in Tumor (PC3-mice; 48 h p.i.): 5.1 ± 0.1 %I.A./g
- Uptake in Adrenal (PC3-mice; 72 h p.i.): 0.9±0.02 %I.A./g
- Uptake in Blood (PC3-mice; 72 h p.i.): 0.1±0.03 %I.A./g
- Uptake in Bone (PC3-mice; 72 h p.i.): 0.9±0.2 %I.A./g
- Uptake in Gallbladder (PC3-mice; 72 h p.i.): 0.1±0.1 %I.A./g
- Uptake in Heart (PC3-mice; 72 h p.i.): 0.3±0.1 %I.A./g
- Uptake in Intestine (PC3-mice; 72 h p.i.): 0.1±0.02 %I.A./g
- Uptake in Kidney (PC3-mice; 72 h p.i.): 0.6±0.1 %I.A./g
- Uptake in Liver (PC3-mice; 72 h p.i.): 1.4±0.4 %I.A./g
- Uptake in Lung (PC3-mice; 72 h p.i.): 0.1±0.02 %I.A./g
- Uptake in Muscle (PC3-mice; 72 h p.i.): 0.2±0.02 %I.A./g
- Uptake in Pancreas (PC3-mice; 72 h p.i.): 0.4±0.03 %I.A./g
- Uptake in Salivary glands (PC3-mice; 72 h p.i.): 0.7±0.04 %I.A./g
- Uptake in Spleen (PC3-mice; 72 h p.i.): 0.3±0.1 %I.A./g
- Uptake in Stomach (PC3-mice; 72 h p.i.): 0.1±0.02 %I.A./g
- Uptake in Tumor (PC3-mice; 72 h p.i.): 3.2±0.3 %I.A./g
- Uptake in Adrenal (PC3-mice; 96 h p.i.): 0.5±0.01 %I.A./g
- Uptake in Blood (PC3-mice; 96 h p.i.): 0.03±0 %I.A./g
- Uptake in Bone (PC3-mice; 96 h p.i.): 0.6±0.1 %I.A./g
- Uptake in Gallbladder (PC3-mice; 96 h p.i.): 0.1±0.02 %I.A./g
- Uptake in Heart (PC3-mice; 96 h p.i.): 0.2±0.02 %I.A./g
- Uptake in Intestine (PC3-mice; 96 h p.i.): 0.1±0.02 %I.A./g
- Uptake in Kidney (PC3-mice; 96 h p.i.): 0.4±0.04 %I.A./g
- Uptake in Liver (PC3-mice; 96 h p.i.): 1.3±0.1 %I.A./g
- Uptake in Lung (PC3-mice; 96 h p.i.): 0.1±0.02 %I.A./g
- Uptake in Muscle (PC3-mice; 96 h p.i.): 0.1±0.1 %I.A./g
- Uptake in Pancreas (PC3-mice; 96 h p.i.): 0.2±0.02 %I.A./g
- Uptake in Salivary glands (PC3-mice; 96 h p.i.): 0.7±0.1 %I.A./g
- Uptake in Spleen (PC3-mice; 96 h p.i.): 0.3±0.03 %I.A./g
- Uptake in Stomach (PC3-mice; 96 h p.i.): 0.1±0.01 %I.A./g
- Uptake in Tumor (PC3-mice; 96 h p.i.): 2.2±0.2 %I.A./g
- Uptake in Adrenal (PC3-mice; [3]): 0.8±0.5 %I.A./g
- Uptake in Blood (PC3-mice; [3]): 0.03±0.01 %I.A./g
- Uptake in Bone (PC3-mice; [3]): 0.7±0.1 %I.A./g
- Uptake in Gallbladder (PC3-mice; [3]): 0.2±0.2 %I.A./g
- Uptake in Heart (PC3-mice; [3]): 0.2±0.04 %I.A./g
- Uptake in Intestine (PC3-mice; [3]): 0.1±0.02 %I.A./g
- Uptake in Kidney (PC3-mice; [3]): 0.5±0.1 %I.A./g
- Uptake in Liver (PC3-mice; [3]): 1.2±0.5 %I.A./g
- Uptake in Lung (PC3-mice; [3]): 0.1±0.04 %I.A./g
- Uptake in Muscle (PC3-mice; [3]): 0.2±0.04 %I.A./g
- Uptake in Pancreas (PC3-mice; [3]): 0.2±0.2 %I.A./g
- Uptake in Salivary glands (PC3-mice; [3]): 0.6±0.2 %I.A./g
- Uptake in Spleen (PC3-mice; [3]): 0.3±0.1 %I.A./g
- Uptake in Stomach (PC3-mice; [3]): 0.09±0.02 %I.A./g
- Uptake in Tumor (PC3-mice; [3]): 2.9±1.8 %I.A./g
- tumor uptake (PC3-mice; at 1 h p.i. as printed): ~ 15 %I.A./g
- drop of tumor uptake (washed-out) (PC3-mice; at 24 h vs 4 h p.i.): ~ 50%
Compound: N#C[C@@H]1CC(F)(F)CN1C(=O)CNC(=O)c1ccnc2ccc(OCCCCNC(=O)CC[C@H](NC(=O)CCC(C(=O)O)N3CCN(CC(=O)[O-])CCN(CC(=O)[O-])CCN(CC(=O)[O-])CC3)C(=O)NCCCCOc3ccc4nccc(C(=O)NCC(=O)N5CC(F)(F)C[C@H]5C#N)c4c3)cc12.[177Lu+3] (some centres unmarked) [[^177Lu]Lu-DOTAGA.Glu.(FAPI)2]
- absorbed dose left colon ([1]; human dosimetry, mean): 0.31 ± 0.12 Gy/GBq
- absorbed dose right colon ([1]; human dosimetry, mean): 0.22 ± 0.09 Gy/GBq
- biological half-life in bone metastases ([1]; human studies): 19.5 ± 7.3 h
- biological half-life in soft tissue metastases ([1]; human studies): 22.1 ± 6.7 h
